Ends that are not written are not given here.
Columns and labels:
C57BL/6NCrj mice [1] = assay: light-dark exploration test, SB-334867 (Example 3); format: in vivo
Description: Specifically, two types of solutions, 0.50 nmol/μl and 1.50 nmol/μl, were prepared. The artificial cerebrospinal fluid (aCSF) was used alone as a negative control.
The position of the inserted cannula was also confirmed in the same manner.
The following three subject groups were tested.
The test apparatus consisted of a dark compartment (depth 10 cm×width 15 cm length 20 cm) and a light compartment (depth 20 cm×width 15 cm×length 20 cm). Specifically, the dark compartment was made of a black plastic material with a lid on top whereas the light compartment was made of a white plastic material with an open top. Both of the light and dark compartments were connected via a black plastic tunnel (depth 7 cm×width 10 cm×length 4.5 cm) that allows access to both compartments.
At the end of the test, the total time spent in the light compartment was calculated for each test animal, and the results were expressed as “average time+SEM” for each test subject (see FIG. 4). […]

mouse = details: intracerebroventricular administration to a mouse; cited from earlier work
C57BL/6NCrj mice [2] = assay: light-dark exploration test, orexin-A (Example 1); format: in vivo; details: for time spent in the light compartment, difference from the aCSF administration group: intracerebroventricular, mice
Description: C57BL/6NCrj mice (male, 25 to 30 g, Charles River, Japan) were used for the light-dark exploration test. Ten mice were bred per cage.
(§1) Orexin-A (Peptide Institute Inc., Osaka, Japan) was dissolved in an artificial cerebrospinal fluid (aCSF: glucose 10 mM, KCl 2 mM, NaCl 115 mM, CaCl2 2.5 mM, MgSO4 1.2 mM, NaHCO3 25 mM, KH2PO4 2.2 mM; pH 7. 4) to prepare solutions at various concentrations (0.1 nmol/μl, 0.3 nmol/μl, 1.0 nmol/μl, 3.0 nmol/μl). The artificial cerebrospinal fluid was used alone as a negative control.
(§2) A stainless-steel injection needle was used that can be inserted into the lateral ventricle to a point 0.5 mm deeper than the tip of the guide cannula for intracerebroventricularly administering an orexin-A solution. The amounts of orexin-A solution were 2 μl and 5 μl for mice and rats, respectively. A microsyringe (705N 50 μl, Hamilton, Nevada, USA) was connected to a reflux pump (CMA100, BAS Inc., Tokyo, Japan) for injection at a precisely constant rate (1 μl/min for mice and 2.5 μl/min for rats).
The following four subject groups were tested.
The test apparatus consisted of two compartments, namely a dark compartment (depth 10 cm×width 15 cm×length 20 cm) and a light compartment (depth 20 cm×width 15 cm×length 20 cm). Specifically, the dark compartment was made using a black plastic material with a lid on top whereas the light compartment was made using a white plastic material with an open top. Both of the light and dark compartments were connected via a black plastic tunnel (depth 7 cm×width 10 cm×length 4.5 cm) that allows access to both compartments.
The illumination of the test room was set to 150 lux. The test animals were habituated to an illumination of 10 lux in another room for more than 3 hours before starting the test (except upon administration). This test was conducted between 13:00 to 16:00. […]
At the end of the test, the total time spent in the light compartment was calculated for each test animal, and the results were expressed as “average time+SEM” (see FIG. 1). […]

WISTAR rats = assay: elevated plus maze test, orexin-A (Example 1); format: in vivo; details: intracerebroventricular administration to rats, 0.1 to 3.0 nmol, 15 minutes before test; 5 min test
Description: WISTAR rats (male, 300 to 400 g, Charles River, Japan) were used for the elevated plus maze test. Two […] were bred per cage.
as §1, §2
The following five subject groups were tested. […]
At the end of the test, the total time spent in the open arms was calculated for each test animal, and the results were expressed as “average time+SEM” for each test subject (see FIG. 2). […]

C57BL/6NCrj mice [3] = assay: elevated plus maze test, orexin-A (Example 2); format: in vivo; details: 1.0 nmol orexin-A, intracerebroventricular, vs aCSF administration group, p<0.05
Description: C57BL/6NCrj mice (male, 25 to 30 g, Charles River, Japan) were used. Ten mice were bred per cage.
as §1, with “7.4)” for “7. 4)”, “a solution” for “solutions”, “a predetermined concentration (1.0” for “various concentrations (0.1 nmol/μl, 0.3 nmol/μl, 1.0 nmol/μl, 3.0”
A stainless-steel injection needle was used that can be inserted into the lateral ventricle at a point 0.5 mm deeper than the tip of the guide cannula for intracerebroventricular administration of the orexin-A solution. The amount of the orexin-A solution was 2 μl. A microsyringe (705N 50 μl, Hamilton, Nevada, USA) was connected to a reflux pump (CMA100, BAS Inc., Tokyo, Japan) for injection at a precisely constant rate (1 μl/min).
The following two subject groups were tested.
The elevated plus maze test was basically carried out according to the test procedure described in S. Pellow et al. (J. Neurosci. Methods, vol. 14 (1985), p-149-167). […]
At the end of the test, the total time spent in the open arms was calculated for each test animal, and the results were expressed as “average time+SEM” for each test subject (see FIG. 3). […]

orexin receptor-2 (OX2R) = biological target: T1, orexin receptor-2 (OX2R) (Homo sapiens, UniProt O43614); details: orexin-A compared with orexin-B; cited from earlier work
T1 sequence (O43614 1-444): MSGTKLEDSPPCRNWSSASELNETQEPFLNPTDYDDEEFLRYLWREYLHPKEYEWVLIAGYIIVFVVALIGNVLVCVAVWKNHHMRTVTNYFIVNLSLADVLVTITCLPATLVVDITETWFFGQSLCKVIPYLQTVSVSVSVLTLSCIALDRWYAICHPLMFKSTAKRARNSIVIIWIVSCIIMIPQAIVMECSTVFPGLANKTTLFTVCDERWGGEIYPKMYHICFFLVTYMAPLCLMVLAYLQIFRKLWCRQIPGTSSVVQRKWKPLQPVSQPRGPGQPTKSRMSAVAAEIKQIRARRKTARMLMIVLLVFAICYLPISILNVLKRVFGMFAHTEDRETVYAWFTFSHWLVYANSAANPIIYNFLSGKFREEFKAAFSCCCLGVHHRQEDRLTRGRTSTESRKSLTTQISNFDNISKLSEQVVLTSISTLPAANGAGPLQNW

Cc1nc2ccc(NC(=O)Nc3ccnc4cccnc34)cc2o1 [SB-334867, 1-(2-methylbenzoxazole 6-yl)-3-[1,5]naphthyridine-4-yl urea]
time spent in the light compartment (C57BL/6NCrj mice [1]; intracerebroventricular administration to mice, 1 nmol and 3 nmol, 15 minutes before test, 5 min test): lengthened time spent in the light compartment dosage-dependently
assessment result: action on anxiety (C57BL/6NCrj mice [1]; light-dark exploration test, mice, intracerebroventricular): anxiogenic action

orexin-A: neuropeptide, endogenous orexin receptor ligand; 33 amino acids with two disulfide bonds; from Peptide Institute Inc. (QPLPDCCRQKTCSCRLYELLHGAGNHAAGILTL; disulfide (positions not given here); ends not checked; also: two disulfide bonds, pairing not given here; UniProt O43612 34-66, looked up)
stress-like behaviors such as face washing, grooming, searching and burrowing (mouse): increases
time spent in the light compartment, difference from the aCSF administration group (C57BL/6NCrj mice [2]; 0.1 nmol orexin-A administration group): significant difference
time spent in the light compartment, difference from the aCSF administration group (C57BL/6NCrj mice [2]; 1.0 nmol orexin-A administration group): significant difference
time spent in the light compartment (C57BL/6NCrj mice [2]; intracerebroventricular administration to mice 15 minutes before test, 5 min test, vs aCSF): significantly shortened
time spent in the open arms (WISTAR rats): shortened volume-dependently
time spent in the open arms (elevated plus maze test, FIG. 3) (C57BL/6NCrj mice [3]): significantly shortened

orexin-B: neuropeptide, endogenous orexin receptor ligand comprising 28 amino acids
binding affinity of OX2R (orexin receptor-2 (OX2R)): generally the same level
